± gives the uncertainty stated by the source.
Experiment: xn = mol fraction of the nth substance listed
Settings: 100 kPa

CC[N+](CC)(CC)CC.F[B-](F)(F)F + CC#N
viscosity (293.15 K, x1 = 0.004202): 0.42 ± 0.009 mPa·s
viscosity (293.15 K, x1 = 0.008244): 0.438 ± 0.009 mPa·s
viscosity (293.15 K, x1 = 0.01214): 0.455 ± 0.01 mPa·s
viscosity (293.15 K, x1 = 0.0162): 0.474 ± 0.01 mPa·s
electrical conductivity (293.15 K, x1 = 0.02): 2.88 ± 0.058 S/m
viscosity (293.15 K, x1 = 0.0201): 0.484 ± 0.01 mPa·s
viscosity (293.15 K, x1 = 0.02405): 0.506 ± 0.011 mPa·s
viscosity (293.15 K, x1 = 0.02791): 0.531 ± 0.011 mPa·s
electrical conductivity (293.15 K, x1 = 0.0301): 3.6 ± 0.072 S/m
viscosity (293.15 K, x1 = 0.03183): 0.55 ± 0.012 mPa·s
viscosity (293.15 K, x1 = 0.03568): 0.573 ± 0.012 mPa·s
viscosity (293.15 K, x1 = 0.03943): 0.593 ± 0.013 mPa·s
electrical conductivity (293.15 K, x1 = 0.0499): 4.6 ± 0.092 S/m
electrical conductivity (293.15 K, x1 = 0.0698): 5.04 ± 0.1 S/m
electrical conductivity (293.15 K, x1 = 0.08): 5.32 ± 0.11 S/m
electrical conductivity (293.15 K, x1 = 0.1): 5.56 ± 0.11 S/m
electrical conductivity (293.15 K, x1 = 0.1101): 5.58 ± 0.11 S/m
viscosity (298.15 K, x1 = 0.004202): 0.401 ± 0.009 mPa·s
viscosity (298.15 K, x1 = 0.008244): 0.417 ± 0.009 mPa·s
viscosity (298.15 K, x1 = 0.01214): 0.435 ± 0.009 mPa·s
viscosity (298.15 K, x1 = 0.0162): 0.452 ± 0.01 mPa·s
electrical conductivity (298.15 K, x1 = 0.02): 2.99 ± 0.06 S/m
viscosity (298.15 K, x1 = 0.0201): 0.46 ± 0.01 mPa·s
viscosity (298.15 K, x1 = 0.02405): 0.48 ± 0.01 mPa·s
viscosity (298.15 K, x1 = 0.02791): 0.507 ± 0.011 mPa·s
electrical conductivity (298.15 K, x1 = 0.0301): 3.65 ± 0.073 S/m
viscosity (298.15 K, x1 = 0.03183): 0.525 ± 0.011 mPa·s
viscosity (298.15 K, x1 = 0.03568): 0.546 ± 0.012 mPa·s
viscosity (298.15 K, x1 = 0.03943): 0.566 ± 0.012 mPa·s
electrical conductivity (298.15 K, x1 = 0.0499): 4.78 ± 0.096 S/m
electrical conductivity (298.15 K, x1 = 0.0698): 5.24 ± 0.1 S/m
electrical conductivity (298.15 K, x1 = 0.08): 5.59 ± 0.11 S/m
electrical conductivity (298.15 K, x1 = 0.1): 5.85 ± 0.12 S/m
electrical conductivity (298.15 K, x1 = 0.1101): 5.88 ± 0.12 S/m
viscosity (303.15 K, x1 = 0.004202): 0.383 ± 0.008 mPa·s
viscosity (303.15 K, x1 = 0.008244): 0.399 ± 0.009 mPa·s
viscosity (303.15 K, x1 = 0.01214): 0.415 ± 0.009 mPa·s
viscosity (303.15 K, x1 = 0.0162): 0.432 ± 0.009 mPa·s
electrical conductivity (303.15 K, x1 = 0.02): 3.11 ± 0.062 S/m
viscosity (303.15 K, x1 = 0.0201): 0.438 ± 0.009 mPa·s
viscosity (303.15 K, x1 = 0.02405): 0.457 ± 0.01 mPa·s
viscosity (303.15 K, x1 = 0.02791): 0.484 ± 0.01 mPa·s
electrical conductivity (303.15 K, x1 = 0.0301): 3.74 ± 0.075 S/m
viscosity (303.15 K, x1 = 0.03183): 0.501 ± 0.011 mPa·s
viscosity (303.15 K, x1 = 0.03568): 0.521 ± 0.011 mPa·s
viscosity (303.15 K, x1 = 0.03943): 0.541 ± 0.012 mPa·s
electrical conductivity (303.15 K, x1 = 0.0499): 4.98 ± 0.1 S/m
electrical conductivity (303.15 K, x1 = 0.0698): 5.48 ± 0.11 S/m
electrical conductivity (303.15 K, x1 = 0.08): 5.85 ± 0.12 S/m
electrical conductivity (303.15 K, x1 = 0.1): 6.14 ± 0.12 S/m
electrical conductivity (303.15 K, x1 = 0.1101): 6.18 ± 0.12 S/m
viscosity (308.15 K, x1 = 0.004202): 0.367 ± 0.008 mPa·s
viscosity (308.15 K, x1 = 0.008244): 0.381 ± 0.008 mPa·s
viscosity (308.15 K, x1 = 0.01214): 0.397 ± 0.008 mPa·s
viscosity (308.15 K, x1 = 0.0162): 0.413 ± 0.009 mPa·s
electrical conductivity (308.15 K, x1 = 0.02): 3.22 ± 0.064 S/m
viscosity (308.15 K, x1 = 0.0201): 0.419 ± 0.009 mPa·s
viscosity (308.15 K, x1 = 0.02405): 0.436 ± 0.009 mPa·s
viscosity (308.15 K, x1 = 0.02791): 0.463 ± 0.01 mPa·s
electrical conductivity (308.15 K, x1 = 0.0301): 3.88 ± 0.078 S/m
viscosity (308.15 K, x1 = 0.03183): 0.478 ± 0.01 mPa·s
viscosity (308.15 K, x1 = 0.03568): 0.497 ± 0.011 mPa·s
viscosity (308.15 K, x1 = 0.03943): 0.517 ± 0.011 mPa·s
electrical conductivity (308.15 K, x1 = 0.0499): 5.18 ± 0.1 S/m
electrical conductivity (308.15 K, x1 = 0.0698): 5.71 ± 0.11 S/m
electrical conductivity (308.15 K, x1 = 0.08): 6.11 ± 0.12 S/m
electrical conductivity (308.15 K, x1 = 0.1): 6.43 ± 0.13 S/m
electrical conductivity (308.15 K, x1 = 0.1101): 6.48 ± 0.13 S/m
viscosity (313.15 K, x1 = 0.004202): 0.352 ± 0.008 mPa·s
viscosity (313.15 K, x1 = 0.008244): 0.365 ± 0.008 mPa·s
viscosity (313.15 K, x1 = 0.01214): 0.381 ± 0.008 mPa·s
viscosity (313.15 K, x1 = 0.0162): 0.396 ± 0.008 mPa·s
electrical conductivity (313.15 K, x1 = 0.02): 3.33 ± 0.067 S/m
viscosity (313.15 K, x1 = 0.0201): 0.4 ± 0.009 mPa·s
viscosity (313.15 K, x1 = 0.02405): 0.417 ± 0.009 mPa·s
viscosity (313.15 K, x1 = 0.02791): 0.442 ± 0.009 mPa·s
electrical conductivity (313.15 K, x1 = 0.0301): 4.03 ± 0.081 S/m
viscosity (313.15 K, x1 = 0.03183): 0.457 ± 0.01 mPa·s
viscosity (313.15 K, x1 = 0.03568): 0.474 ± 0.01 mPa·s
viscosity (313.15 K, x1 = 0.03943): 0.494 ± 0.011 mPa·s
electrical conductivity (313.15 K, x1 = 0.0499): 5.38 ± 0.11 S/m
electrical conductivity (313.15 K, x1 = 0.0698): 5.95 ± 0.12 S/m
electrical conductivity (313.15 K, x1 = 0.08): 6.36 ± 0.13 S/m
electrical conductivity (313.15 K, x1 = 0.1): 6.72 ± 0.14 S/m
electrical conductivity (313.15 K, x1 = 0.1101): 6.78 ± 0.14 S/m
viscosity (318.15 K, x1 = 0.004202): 0.338 ± 0.007 mPa·s
viscosity (318.15 K, x1 = 0.008244): 0.35 ± 0.007 mPa·s
viscosity (318.15 K, x1 = 0.01214): 0.365 ± 0.008 mPa·s
viscosity (318.15 K, x1 = 0.0162): 0.38 ± 0.008 mPa·s
electrical conductivity (318.15 K, x1 = 0.02): 3.44 ± 0.069 S/m
viscosity (318.15 K, x1 = 0.0201): 0.383 ± 0.008 mPa·s
viscosity (318.15 K, x1 = 0.02405): 0.399 ± 0.009 mPa·s
viscosity (318.15 K, x1 = 0.02791): 0.423 ± 0.009 mPa·s
electrical conductivity (318.15 K, x1 = 0.0301): 4.17 ± 0.084 S/m
viscosity (318.15 K, x1 = 0.03183): 0.437 ± 0.009 mPa·s
viscosity (318.15 K, x1 = 0.03568): 0.454 ± 0.01 mPa·s
viscosity (318.15 K, x1 = 0.03943): 0.474 ± 0.01 mPa·s
electrical conductivity (318.15 K, x1 = 0.0499): 5.58 ± 0.11 S/m
electrical conductivity (318.15 K, x1 = 0.0698): 6.18 ± 0.12 S/m
electrical conductivity (318.15 K, x1 = 0.08): 6.59 ± 0.13 S/m
electrical conductivity (318.15 K, x1 = 0.1): 7.01 ± 0.14 S/m
electrical conductivity (318.15 K, x1 = 0.1101): 7.08 ± 0.14 S/m
viscosity (323.15 K, x1 = 0.004202): 0.326 ± 0.007 mPa·s
viscosity (323.15 K, x1 = 0.008244): 0.337 ± 0.007 mPa·s
viscosity (323.15 K, x1 = 0.01214): 0.35 ± 0.007 mPa·s
viscosity (323.15 K, x1 = 0.0162): 0.364 ± 0.008 mPa·s
electrical conductivity (323.15 K, x1 = 0.02): 3.54 ± 0.071 S/m
viscosity (323.15 K, x1 = 0.0201): 0.367 ± 0.008 mPa·s
viscosity (323.15 K, x1 = 0.02405): 0.383 ± 0.008 mPa·s
viscosity (323.15 K, x1 = 0.02791): 0.405 ± 0.009 mPa·s
electrical conductivity (323.15 K, x1 = 0.0301): 4.32 ± 0.086 S/m
viscosity (323.15 K, x1 = 0.03183): 0.418 ± 0.009 mPa·s
viscosity (323.15 K, x1 = 0.03568): 0.435 ± 0.009 mPa·s
viscosity (323.15 K, x1 = 0.03943): 0.455 ± 0.01 mPa·s
electrical conductivity (323.15 K, x1 = 0.0499): 5.77 ± 0.12 S/m
electrical conductivity (323.15 K, x1 = 0.0698): 6.41 ± 0.13 S/m
electrical conductivity (323.15 K, x1 = 0.08): 6.84 ± 0.14 S/m
electrical conductivity (323.15 K, x1 = 0.1): 7.27 ± 0.15 S/m
electrical conductivity (323.15 K, x1 = 0.1101): 7.38 ± 0.15 S/m
electrical conductivity (328.15 K, x1 = 0.02): 3.65 ± 0.073 S/m
electrical conductivity (328.15 K, x1 = 0.0301): 4.46 ± 0.089 S/m
electrical conductivity (328.15 K, x1 = 0.0499): 5.96 ± 0.12 S/m
electrical conductivity (328.15 K, x1 = 0.0698): 6.63 ± 0.13 S/m
electrical conductivity (328.15 K, x1 = 0.08): 7.08 ± 0.14 S/m
electrical conductivity (328.15 K, x1 = 0.1): 7.56 ± 0.15 S/m
electrical conductivity (328.15 K, x1 = 0.1101): 7.68 ± 0.15 S/m
electrical conductivity (333.15 K, x1 = 0.02): 3.75 ± 0.075 S/m
electrical conductivity (333.15 K, x1 = 0.0301): 4.59 ± 0.092 S/m
electrical conductivity (333.15 K, x1 = 0.0499): 6.15 ± 0.12 S/m
electrical conductivity (333.15 K, x1 = 0.0698): 6.86 ± 0.14 S/m
electrical conductivity (333.15 K, x1 = 0.08): 7.33 ± 0.15 S/m
electrical conductivity (333.15 K, x1 = 0.1): 7.83 ± 0.16 S/m
electrical conductivity (333.15 K, x1 = 0.1101): 8.01 ± 0.16 S/m
electrical conductivity (338.15 K, x1 = 0.02): 3.85 ± 0.077 S/m
electrical conductivity (338.15 K, x1 = 0.0301): 4.73 ± 0.095 S/m
electrical conductivity (338.15 K, x1 = 0.0499): 6.34 ± 0.13 S/m
electrical conductivity (338.15 K, x1 = 0.0698): 7.08 ± 0.14 S/m
electrical conductivity (338.15 K, x1 = 0.08): 7.57 ± 0.15 S/m
electrical conductivity (338.15 K, x1 = 0.1): 8.15 ± 0.16 S/m
electrical conductivity (338.15 K, x1 = 0.1101): 8.28 ± 0.17 S/m
electrical conductivity (343.15 K, x1 = 0.02): 3.95 ± 0.079 S/m
electrical conductivity (343.15 K, x1 = 0.0301): 4.86 ± 0.097 S/m
electrical conductivity (343.15 K, x1 = 0.0499): 6.52 ± 0.13 S/m
electrical conductivity (343.15 K, x1 = 0.0698): 7.29 ± 0.15 S/m
electrical conductivity (343.15 K, x1 = 0.08): 7.8 ± 0.16 S/m
electrical conductivity (343.15 K, x1 = 0.1): 8.43 ± 0.17 S/m
electrical conductivity (343.15 K, x1 = 0.1101): 8.57 ± 0.17 S/m
electrical conductivity (348.15 K, x1 = 0.02): 4.04 ± 0.081 S/m
electrical conductivity (348.15 K, x1 = 0.0301): 4.99 ± 0.1 S/m
electrical conductivity (348.15 K, x1 = 0.0499): 6.7 ± 0.13 S/m
electrical conductivity (348.15 K, x1 = 0.0698): 7.51 ± 0.15 S/m
electrical conductivity (348.15 K, x1 = 0.08): 8.04 ± 0.16 S/m
electrical conductivity (348.15 K, x1 = 0.1): 8.73 ± 0.17 S/m
electrical conductivity (348.15 K, x1 = 0.1101): 8.84 ± 0.18 S/m

— the CheMixHub ionic liquid set
